Molecular target: T1, ERR1 (also known as ERR-α or ERR-1) (Homo sapiens, UniProt P11474)
T1 sequence (P11474 193-421 limits assumed): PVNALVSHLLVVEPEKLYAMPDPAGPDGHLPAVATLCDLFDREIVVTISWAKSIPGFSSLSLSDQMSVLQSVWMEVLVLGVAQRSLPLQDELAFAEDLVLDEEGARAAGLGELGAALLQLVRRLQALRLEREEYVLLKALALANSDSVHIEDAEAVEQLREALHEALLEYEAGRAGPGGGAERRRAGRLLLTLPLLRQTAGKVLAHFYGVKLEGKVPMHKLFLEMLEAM
Assay: TR-FRET assay: disruption of co-activator peptide (GST-hSRC2) binding to 6His-tagged ERR1 LBD
Type: biochemical
Conditions: 6 nM ERR1LBD, 6 nM GST-SRC-2 peptide, 25° C., 4-18 hours; average of 3 independent experiments
Protocol: Time-Resolved Fluorescence Resonance Energy Transfer (TR-FRET) experiments were performed to examine the functional response of ERR1 (also known as ERR-α or ERR-1) ligands. The TR-FRET assay described herein relied on the conformation of ERR1 for binding to a co-activator peptide: when a test compound binds to ERR1 and alters its conformation, it can disrupt the binding of the co-activator peptide. The components of this homogeneous secondary assay included: the ^6His-tagged-ERR1LBD, a GST-labeled-hSRC2 co-activator polypeptide and a fluorescent donor/acceptor pair from CIS bio international htrf/bioassays (Bedford, Mass.) using both an α-GST Europium Cryptate (Eu) label and an α^6His-XL665 (allophycocyanin) fluorophore.
For TR-FRET measurements, the reaction was buffered in 25 mM Tris pH 8, 2.5 mM Hepes, 20 mM KCl, 1 mM DTT, and 0.05 mg/mL BSA (-lipids). The final concentrations of reagents were 6 nM of ERR1LBD, 6 nM GST-SRC-2 peptide, 30 nM Eu cryptate, and 7.5 nM XL665. Reactions were allowed to reach equilibrium at 25° C. for 4-18 hours before collecting data on the Analyst from LJL Biosystems (Molecular Devices Sunnyvale, Calif.). As a time-resolved method, the samples were excited at […] and emission was collected for 1 ms at both 615 and 665 nm with delays of 400 and 75 μs, respectively. Dose response curves were fitted using a hyperbolic equation and the data reported is the average of 3 independent experiments.
Compounds listed in Tables II below were tested in the above assay, and they are all active modulators of ERR1.

| SMILES | EC50 [nM] |
| --- | --- |
| CN(C)CCCNC1=NC(=O)/C(=C/c2ccc3c(cnn3Cc3ccc(C(F)(F)F)cc3C(F)(F)F)c2)S1 [Compound 2, 5-[1-(2,4-Bis-trifluoromethyl-benzyl)-1H-indazol-5-ylmethylene]-2-(3-dimethylamino-propylamino)-thiazol-4-one] | 12 |
| COc1ccc(Cn2ncc3cc(/C=C4\SC(NCCCN5CCCC5=O)=NC4=O)ccc32)c(C(F)(F)F)c1 [Compound 7, 5-[1-(4-Methoxy-2-trifluoromethyl-benzyl)-1H-indazol-5-ylmethylene]-2-[3-(2-oxo-pyrrolidin-1-yl)-propylamino]-thiazol-4-one] | 4.4 |
| COc1ccc(Cn2ncc3cc(/C=C4\SC(NC5(C(=O)O)CC5)=NC4=O)ccc32)c(C(F)(F)F)c1 [Compound 13, 1-{5-[1-(4-Methoxy-2-trifluoromethyl-benzyl)-1H-indazol-5-ylmethylene]-4-oxo-4,5-dihydro-thiazol-2-ylamino}-cyclopropanecarboxylic acid] | 5.3 |
| O=C1N=C(N[C@H]2CN3CCC2CC3)S/C1=C\c1ccc2c(cnn2Cc2ccc(C(F)(F)F)cc2C(F)(F)F)c1 [Compound 26, 2-(1-Aza-bicyclo[2.2.2]oct-3(R)-ylamino)-5-[1-(2,4-bis-trifluoromethyl-benzyl)-1H-indazol-5-ylmethylene]-thiazol-4-one] | 36 |
| O=C1N=C(NC2(C(=O)O)CC2)S/C1=C\c1ccc2c(cnn2Cc2ccc(C(F)(F)F)cc2C(F)(F)F)c1 [Compound 14, 1-{5-[1-(2,4-Bis-trifluoromethyl-benzyl)-1H-indazol-5-ylmethylene]-4-oxo-4,5-dihydro-thiazol-2-ylamino}-cyclopropanecarboxylic acid] | 6.5 |
| O=C1N=C(NCCOCCO)S/C1=C\c1ccc2c(cnn2Cc2ccc(Cl)cc2Cl)c1 [Compound 8, 5-[1-(2,4-Dichloro-benzyl)-1H-indazol-5-ylmethylene]-2-[2-(2-hydroxy-ethoxy)-ethylamino]-thiazol-4-one] | 73 |
| O=C1N=C(NCCN2CCCC2=O)S/C1=C\c1ccc2c(cnn2Cc2ccc(C(F)(F)F)cc2C(F)(F)F)c1 [Compound 34, 5-[1-(2,4-Bis-trifluoromethyl-benzyl)-1H-indazol-5-ylmethylene]-2-[2-(2-oxo-pyrrolidin-1-yl)-ethylamino]-thiazol-4-one] | 30.8 |
| CN(C)CCCNC1=NC(=O)/C(=C/c2ccc3c(cnn3Cc3ccc(Cl)cc3C(F)(F)F)c2)S1 [Compound 3, 5-[1-(4-Chloro-2-trifluoromethyl-benzyl)-1H-indazol-5-ylmethylene]-2-(3-dimethylamino-propylamino)-thiazol-4-one] | 6.4 |
| O=C1N=C(NCc2cccnc2)S/C1=C\c1ccc2c(cnn2Cc2ccc(Cl)cc2C(F)(F)F)c1 [Compound 23, 5-[1-(4-Chloro-2-trifluoromethyl-benzyl)-1H-indazol-5-ylmethylene]-2-[(pyridin-3-ylmethyl)-amino]-thiazol-4-one] | 17 |
| COc1ccc(Cn2ncc3cc(/C=C4\SC(NCC(F)F)=NC4=O)ccc32)c(C(F)(F)F)c1 [Compound 11, 2-(2,2-Difluoro-ethylamino)-5-[1-(4-methoxy-2-trifluoromethyl-benzyl)-1H-indazol-5-ylmethylene]-thiazol-4-one] | 3 |
| O=C1N=C(NCc2cncnc2)S/C1=C\c1ccc2c(cnn2Cc2ccc(C(F)(F)F)cc2C(F)(F)F)c1 [Compound 30, 5-[1-(2,4-Bis-trifluoromethyl-benzyl)-1H-indazol-5-ylmethylene]-2-[(pyrimidin-5-ylmethyl)-amino]-thiazol-4-one] | 11 |
| COc1ccc(Cn2ncc3cc(/C=C4\SC(NC[C@H](O)CO)=NC4=O)ccc32)c(C(F)(F)F)c1 [Compound 9, 2-(2S,3-Dihydroxy-propylamino)-5-[1-(4-methoxy-2-trifluoromethyl-benzyl)-1H-indazol-5-ylmethylene]-thiazol-4-one] | 8.9 |

Source: patent publication US8445690B2, “Aminothiazolones as estrogen related receptor-alpha modulators” (Janssen Pharmaceutica NV, priority 2010, dated 2013)
